Assay results reported in ChEMBL document CHEMBL2346657, “Synthesis of novel 2-amino-4-(5'-substituted 2'-phenyl-1H-indol-3'-yl)-6-aryl-4H-pyran-3-carbonitrile derivatives as antimicrobial and antioxidant agents” (2013).
Activity calls are given as the source filed them. How the calls were made is not given here.

Test system: not listed separately
Assay: Antioxidant activity assessed as metal chelating activity by measuring inhibition of ferrozine-Fe2+ complex formation at 25 to 100 ug/ml
Format: functional
Settings: not given

Question: With Cc1ccc(C2=CC(c3c(-c4ccccc4)[nH]c4ccccc34)c3c(nc4oc(=O)c(C#N)c(N)c4c3N)O2)cc1 (stereo not given) as the molecule, how does the Activity read?
Answer: Active

Test system: Aspergillus flavus
Assay: Antimicrobial activity against Aspergillus flavus MTCC 1973 at 500 ug/ml after 72 hrs by cup plate method
Format: functional
Settings: MTCC 1973, 72 h, read-out: IZ

Question: Which zone of inhibition at 500 µg/mL does the source give for Cc1ccc(C2=CC(c3c(-c4ccccc4)[nH]c4ccccc34)c3c(nc4oc(=O)c(C#N)c(N)c4c3N)O2)cc1 (stereo not given) here?
Answer: 0 mm

Test system: Aspergillus flavus
Assay: Antimicrobial activity against Aspergillus flavus MTCC 1973 at 750 ug/ml after 72 hrs by cup plate method
Format: functional
Settings: MTCC 1973, 72 h, read-out: IZ

Question: Which zone of inhibition at 750 µg/mL does the source give for Cc1ccc(C2=CC(c3c(-c4ccccc4)[nH]c4ccccc34)c3c(nc4oc(=O)c(C#N)c(N)c4c3N)O2)cc1 (stereo not given) here?
Answer: 0 mm

Test system: Aspergillus flavus
Assay: Antimicrobial activity against Aspergillus flavus MTCC 1973 at 1000 ug/ml after 72 hrs by cup plate method
Format: functional
Settings: MTCC 1973, 72 h, read-out: IZ

Question: For Cc1ccc(C2=CC(c3c(-c4ccccc4)[nH]c4ccccc34)c3c(nc4oc(=O)c(C#N)c(N)c4c3N)O2)cc1 (stereo not given), which zone of inhibition at 1000 µg/mL is on record?
Answer: 0 mm

Test system: Aspergillus terreus
Assay: Antimicrobial activity against Aspergillus terreus MTCC 1782 at 500 ug/ml after 72 hrs by cup plate method
Format: functional
Settings: MTCC 1782, 72 h, read-out: IZ

Question: For Cc1ccc(C2=CC(c3c(-c4ccccc4)[nH]c4ccccc34)c3c(nc4oc(=O)c(C#N)c(N)c4c3N)O2)cc1 (stereo not given), which zone of inhibition at 500 µg/mL is on record?
Answer: 10 mm

Test system: Aspergillus terreus
Assay: Antimicrobial activity against Aspergillus terreus MTCC 1782 at 750 ug/ml after 72 hrs by cup plate method
Format: functional
Settings: MTCC 1782, 72 h, read-out: IZ

Question: Which zone of inhibition at 750 µg/mL does the source give for Cc1ccc(C2=CC(c3c(-c4ccccc4)[nH]c4ccccc34)c3c(nc4oc(=O)c(C#N)c(N)c4c3N)O2)cc1 (stereo not given) here?
Answer: 5 mm

Test system: Aspergillus terreus
Assay: Antimicrobial activity against Aspergillus terreus MTCC 1782 at 1000 ug/ml after 72 hrs by cup plate method
Format: functional
Settings: MTCC 1782, 72 h, read-out: IZ

Question: With Cc1ccc(C2=CC(c3c(-c4ccccc4)[nH]c4ccccc34)c3c(nc4oc(=O)c(C#N)c(N)c4c3N)O2)cc1 (stereo not given) as the molecule, how does the zone of inhibition at 1000 µg/mL read?
Answer: 3 mm

Test system: Aspergillus oryzae
Assay: Antimicrobial activity against Aspergillus oryzae MTCC 3567 at 500 ug/ml after 72 hrs by cup plate method
Format: functional
Settings: MTCC 3567, 72 h, read-out: IZ

Question: Which zone of inhibition at 500 µg/mL does the source give for Cc1ccc(C2=CC(c3c(-c4ccccc4)[nH]c4ccccc34)c3c(nc4oc(=O)c(C#N)c(N)c4c3N)O2)cc1 (stereo not given) here?
Answer: 6 mm

Test system: Aspergillus oryzae
Assay: Antimicrobial activity against Aspergillus oryzae MTCC 3567 at 750 ug/ml after 72 hrs by cup plate method
Format: functional
Settings: MTCC 3567, 72 h, read-out: IZ

Question: For Cc1ccc(C2=CC(c3c(-c4ccccc4)[nH]c4ccccc34)c3c(nc4oc(=O)c(C#N)c(N)c4c3N)O2)cc1 (stereo not given), which zone of inhibition at 750 µg/mL is on record?
Answer: 6 mm

Test system: Aspergillus oryzae
Assay: Antimicrobial activity against Aspergillus oryzae MTCC 3567 at 1000 ug/ml after 72 hrs by cup plate method
Format: functional
Settings: MTCC 3567, 72 h, read-out: IZ

Question: With Cc1ccc(C2=CC(c3c(-c4ccccc4)[nH]c4ccccc34)c3c(nc4oc(=O)c(C#N)c(N)c4c3N)O2)cc1 (stereo not given) as the molecule, how does the zone of inhibition at 1000 µg/mL read?
Answer: 6 mm

Test system: Aspergillus niger
Assay: Antimicrobial activity against Aspergillus niger MTCC 281 at 500 ug/ml after 72 hrs by cup plate method
Format: functional
Settings: MTCC 281, 72 h, read-out: IZ

Question: For Cc1ccc(C2=CC(c3c(-c4ccccc4)[nH]c4ccccc34)c3c(nc4oc(=O)c(C#N)c(N)c4c3N)O2)cc1 (stereo not given), which zone of inhibition at 500 µg/mL is on record?
Answer: 2 mm

Test system: Aspergillus niger
Assay: Antimicrobial activity against Aspergillus niger MTCC 281 at 750 ug/ml after 72 hrs by cup plate method
Format: functional
Settings: MTCC 281, 72 h, read-out: IZ

Question: For Cc1ccc(C2=CC(c3c(-c4ccccc4)[nH]c4ccccc34)c3c(nc4oc(=O)c(C#N)c(N)c4c3N)O2)cc1 (stereo not given), which zone of inhibition at 750 µg/mL is on record?
Answer: 2 mm

Test system: Aspergillus niger
Assay: Antimicrobial activity against Aspergillus niger MTCC 281 at 1000 ug/ml after 72 hrs by cup plate method
Format: functional
Settings: MTCC 281, 72 h, read-out: IZ

Question: For Cc1ccc(C2=CC(c3c(-c4ccccc4)[nH]c4ccccc34)c3c(nc4oc(=O)c(C#N)c(N)c4c3N)O2)cc1 (stereo not given), which zone of inhibition at 1000 µg/mL is on record?
Answer: 8 mm

Test system: Pseudomonas aeruginosa
Assay: Antimicrobial activity against Pseudomonas aeruginosa MTCC 1688 at 500 ug/ml after 24 hrs by cup plate method
Format: functional
Settings: MTCC 1688, 24 h, read-out: IZ

Question: For Cc1ccc(C2=CC(c3c(-c4ccccc4)[nH]c4ccccc34)c3c(nc4oc(=O)c(C#N)c(N)c4c3N)O2)cc1 (stereo not given), which zone of inhibition at 500 µg/mL is on record?
Answer: 5 mm

Test system: Pseudomonas aeruginosa
Assay: Antimicrobial activity against Pseudomonas aeruginosa MTCC 1688 at 750 ug/ml after 24 hrs by cup plate method
Format: functional
Settings: MTCC 1688, 24 h, read-out: IZ

Question: For Cc1ccc(C2=CC(c3c(-c4ccccc4)[nH]c4ccccc34)c3c(nc4oc(=O)c(C#N)c(N)c4c3N)O2)cc1 (stereo not given), which zone of inhibition at 750 µg/mL is on record?
Answer: 5 mm

Test system: Pseudomonas aeruginosa
Assay: Antimicrobial activity against Pseudomonas aeruginosa MTCC 1688 at 1000 ug/ml after 24 hrs by cup plate method
Format: functional
Settings: MTCC 1688, 24 h, read-out: IZ

Question: With Cc1ccc(C2=CC(c3c(-c4ccccc4)[nH]c4ccccc34)c3c(nc4oc(=O)c(C#N)c(N)c4c3N)O2)cc1 (stereo not given) as the molecule, how does the zone of inhibition at 1000 µg/mL read?
Answer: 9 mm

Test system: Klebsiella pneumoniae
Assay: Antimicrobial activity against Klebsiella pneumoniae NCTC 13368 at 500 ug/ml after 24 hrs by cup plate method
Format: functional
Settings: NCTC 13368, 24 h, read-out: IZ

Question: With Cc1ccc(C2=CC(c3c(-c4ccccc4)[nH]c4ccccc34)c3c(nc4oc(=O)c(C#N)c(N)c4c3N)O2)cc1 (stereo not given) as the molecule, how does the zone of inhibition at 500 µg/mL read?
Answer: 12 mm

Test system: Klebsiella pneumoniae
Assay: Antimicrobial activity against Klebsiella pneumoniae NCTC 13368 at 750 ug/ml after 24 hrs by cup plate method
Format: functional
Settings: NCTC 13368, 24 h, read-out: IZ

Question: Which zone of inhibition at 750 µg/mL does the source give for Cc1ccc(C2=CC(c3c(-c4ccccc4)[nH]c4ccccc34)c3c(nc4oc(=O)c(C#N)c(N)c4c3N)O2)cc1 (stereo not given) here?
Answer: 11 mm

Test system: Klebsiella pneumoniae
Assay: Antimicrobial activity against Klebsiella pneumoniae NCTC 13368 at 1000 ug/ml after 24 hrs by cup plate method
Format: functional
Settings: NCTC 13368, 24 h, read-out: IZ

Question: With Cc1ccc(C2=CC(c3c(-c4ccccc4)[nH]c4ccccc34)c3c(nc4oc(=O)c(C#N)c(N)c4c3N)O2)cc1 (stereo not given) as the molecule, how does the zone of inhibition at 1000 µg/mL read?
Answer: 10 mm

Test system: Staphylococcus aureus
Assay: Antimicrobial activity against Staphylococcus aureus ATCC 29513 at 500 ug/ml after 24 hrs by cup plate method
Format: functional
Settings: ATCC 29513, 24 h, read-out: IZ

Question: Which zone of inhibition at 500 µg/mL does the source give for Cc1ccc(C2=CC(c3c(-c4ccccc4)[nH]c4ccccc34)c3c(nc4oc(=O)c(C#N)c(N)c4c3N)O2)cc1 (stereo not given) here?
Answer: 8 mm

Test system: Staphylococcus aureus
Assay: Antimicrobial activity against Staphylococcus aureus ATCC 29513 at 750 ug/ml after 24 hrs by cup plate method
Format: functional
Settings: ATCC 29513, 24 h, read-out: IZ

Question: For Cc1ccc(C2=CC(c3c(-c4ccccc4)[nH]c4ccccc34)c3c(nc4oc(=O)c(C#N)c(N)c4c3N)O2)cc1 (stereo not given), which zone of inhibition at 750 µg/mL is on record?
Answer: 5 mm

Test system: Staphylococcus aureus
Assay: Antimicrobial activity against Staphylococcus aureus ATCC 29513 at 1000 ug/ml after 24 hrs by cup plate method
Format: functional
Settings: ATCC 29513, 24 h, read-out: IZ

Question: With Cc1ccc(C2=CC(c3c(-c4ccccc4)[nH]c4ccccc34)c3c(nc4oc(=O)c(C#N)c(N)c4c3N)O2)cc1 (stereo not given) as the molecule, how does the zone of inhibition at 1000 µg/mL read?
Answer: 3 mm

Test system: Escherichia coli
Assay: Antimicrobial activity against Escherichia coli MTCC 723 at 500 ug/ml after 24 hrs by cup plate method
Format: functional
Settings: MTCC 723, 24 h, read-out: IZ

Question: For Cc1ccc(C2=CC(c3c(-c4ccccc4)[nH]c4ccccc34)c3c(nc4oc(=O)c(C#N)c(N)c4c3N)O2)cc1 (stereo not given), which zone of inhibition at 500 µg/mL is on record?
Answer: 9 mm

Test system: Escherichia coli
Assay: Antimicrobial activity against Escherichia coli MTCC 723 at 750 ug/ml after 24 hrs by cup plate method
Format: functional
Settings: MTCC 723, 24 h, read-out: IZ

Question: With Cc1ccc(C2=CC(c3c(-c4ccccc4)[nH]c4ccccc34)c3c(nc4oc(=O)c(C#N)c(N)c4c3N)O2)cc1 (stereo not given) as the molecule, how does the zone of inhibition at 750 µg/mL read?
Answer: 8 mm

Test system: Escherichia coli
Assay: Antimicrobial activity against Escherichia coli MTCC 723 at 1000 ug/ml after 24 hrs by cup plate method
Format: functional
Settings: MTCC 723, 24 h, read-out: IZ

Question: For Cc1ccc(C2=CC(c3c(-c4ccccc4)[nH]c4ccccc34)c3c(nc4oc(=O)c(C#N)c(N)c4c3N)O2)cc1 (stereo not given), which zone of inhibition at 1000 µg/mL is on record?
Answer: 8 mm
